# Test results published in ChEMBL document CHEMBL1155952, “4-Amino-6-arylamino-pyrimidine-5-carbaldehyde hydrazones as potent ErbB-2/EGFR dual kinase inhibitors” (Bioorg Med Chem Lett, 2008).
# pIC50: −log10 of the molar value.
# Assays:
# [1] = target: Tyrosine-protein kinase Lck (Homo sapiens) (UniProt P06239); assay: Inhibition of LCK at 3 uM
# [2] = Plasma concentration in Sprague-Dawley rat at 10 mg/kg, po administered in 0.5% hydroxypropyl methylcellulose after 2 hrs; assay type: ADME, organism-based; design: dose 10 mg/kg, route oral
# BT-474 = assay: cells; details: Homo sapiens
# Description: Antiproliferative activity against human BT474 cells overexpressing ErB2
# [3] = target: T1, Receptor tyrosine-protein kinase erbB-2 (Homo sapiens, UniProt P04626); assay: Inhibition of human ErB2 phosphorylation in human SKBR3 cells; assay type: cell-based, SK-BR-3
# SK-BR-3 = assay: Antiproliferative activity against human SKBR3 cells overexpressing ErB2; assay type: functional, cell-based
# NCI-N87 = assay: Antiproliferative activity against human N87 cells overexpressing ErB2; assay type: functional, cell-based
# [4] = Plasma concentration in Sprague-Dawley rat at 10 mg/kg, po administered in 0.5% hydroxypropyl methylcellulose after 1 hr; assay type: ADME, organism-based; design: dose 10 mg/kg, route oral
# [5] = target: RAF proto-oncogene serine/threonine-protein kinase (Homo sapiens) (UniProt P04049); assay: Inhibition of c-Raf at 3 uM
# HeLa = assay: Antiproliferative activity against human HeLa cells; assay type: functional, cell-based
# [6] = target: T1, Receptor tyrosine-protein kinase erbB-2; assay: Inhibition of human ErbB2
# [7] = Plasma concentration in Sprague-Dawley rat at 10 mg/kg, po administered in 0.5% hydroxypropyl methylcellulose after 0.5 hrs; assay type: ADME, organism-based; design: dose 10 mg/kg, route oral
# [8] = target: Epidermal growth factor receptor (Homo sapiens, UniProt P00533); assay: Inhibition of human EGFR expressed in SF9 cells
# [9] = Plasma concentration in Sprague-Dawley rat at 10 mg/kg, po administered in 10% solutol in D5W after 1 hr; assay type: ADME, organism-based; design: dose 10 mg/kg, route oral
# [10] = Plasma concentration in Sprague-Dawley rat at 10 mg/kg, po administered in 10% solutol in D5W after 4 hrs; assay type: ADME, organism-based; design: dose 10 mg/kg, route oral
# [11] = Plasma concentration in Sprague-Dawley rat at 10 mg/kg, po administered in 10% solutol in D5W after 0.5 hrs; assay type: ADME, organism-based; design: dose 10 mg/kg, route oral
# [12] = Plasma concentration in Sprague-Dawley rat at 10 mg/kg, po administered in 10% solutol in D5W after 2 hrs; assay type: ADME, organism-based; design: dose 10 mg/kg, route oral
# T1 sequence (P04626 whole entry): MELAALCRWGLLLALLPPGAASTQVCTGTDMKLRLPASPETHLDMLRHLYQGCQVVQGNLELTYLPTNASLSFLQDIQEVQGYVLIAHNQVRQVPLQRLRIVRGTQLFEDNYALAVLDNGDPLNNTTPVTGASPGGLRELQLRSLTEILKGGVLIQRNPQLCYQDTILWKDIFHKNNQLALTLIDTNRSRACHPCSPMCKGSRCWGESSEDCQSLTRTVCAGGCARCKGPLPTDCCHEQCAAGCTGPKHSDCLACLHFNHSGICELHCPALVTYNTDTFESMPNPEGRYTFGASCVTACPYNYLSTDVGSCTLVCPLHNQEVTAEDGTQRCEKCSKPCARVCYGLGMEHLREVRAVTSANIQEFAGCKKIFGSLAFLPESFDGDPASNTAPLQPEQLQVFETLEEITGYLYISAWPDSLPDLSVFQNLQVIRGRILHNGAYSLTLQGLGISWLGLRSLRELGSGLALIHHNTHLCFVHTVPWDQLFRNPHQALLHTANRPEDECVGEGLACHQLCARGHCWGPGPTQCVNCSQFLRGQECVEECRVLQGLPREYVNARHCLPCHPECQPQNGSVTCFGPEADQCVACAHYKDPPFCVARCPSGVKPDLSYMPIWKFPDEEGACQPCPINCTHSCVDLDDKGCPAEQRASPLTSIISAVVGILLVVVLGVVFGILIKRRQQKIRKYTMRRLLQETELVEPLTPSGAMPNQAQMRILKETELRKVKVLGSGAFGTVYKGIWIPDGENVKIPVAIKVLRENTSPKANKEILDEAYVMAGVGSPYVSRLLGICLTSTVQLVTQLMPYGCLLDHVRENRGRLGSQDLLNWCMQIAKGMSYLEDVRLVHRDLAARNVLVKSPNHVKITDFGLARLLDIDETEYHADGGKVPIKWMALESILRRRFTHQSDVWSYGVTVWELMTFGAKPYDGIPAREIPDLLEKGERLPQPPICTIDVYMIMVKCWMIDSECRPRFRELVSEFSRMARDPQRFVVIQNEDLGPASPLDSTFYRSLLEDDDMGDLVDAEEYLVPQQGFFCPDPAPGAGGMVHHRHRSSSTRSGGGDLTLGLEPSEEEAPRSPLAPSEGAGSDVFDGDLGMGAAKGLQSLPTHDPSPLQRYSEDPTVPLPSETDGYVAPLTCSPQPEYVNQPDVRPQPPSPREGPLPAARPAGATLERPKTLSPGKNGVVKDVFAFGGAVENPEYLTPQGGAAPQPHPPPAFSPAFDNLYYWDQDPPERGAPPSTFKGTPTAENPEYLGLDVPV
# Epidermal growth factor receptor, sequence (P00533 whole entry): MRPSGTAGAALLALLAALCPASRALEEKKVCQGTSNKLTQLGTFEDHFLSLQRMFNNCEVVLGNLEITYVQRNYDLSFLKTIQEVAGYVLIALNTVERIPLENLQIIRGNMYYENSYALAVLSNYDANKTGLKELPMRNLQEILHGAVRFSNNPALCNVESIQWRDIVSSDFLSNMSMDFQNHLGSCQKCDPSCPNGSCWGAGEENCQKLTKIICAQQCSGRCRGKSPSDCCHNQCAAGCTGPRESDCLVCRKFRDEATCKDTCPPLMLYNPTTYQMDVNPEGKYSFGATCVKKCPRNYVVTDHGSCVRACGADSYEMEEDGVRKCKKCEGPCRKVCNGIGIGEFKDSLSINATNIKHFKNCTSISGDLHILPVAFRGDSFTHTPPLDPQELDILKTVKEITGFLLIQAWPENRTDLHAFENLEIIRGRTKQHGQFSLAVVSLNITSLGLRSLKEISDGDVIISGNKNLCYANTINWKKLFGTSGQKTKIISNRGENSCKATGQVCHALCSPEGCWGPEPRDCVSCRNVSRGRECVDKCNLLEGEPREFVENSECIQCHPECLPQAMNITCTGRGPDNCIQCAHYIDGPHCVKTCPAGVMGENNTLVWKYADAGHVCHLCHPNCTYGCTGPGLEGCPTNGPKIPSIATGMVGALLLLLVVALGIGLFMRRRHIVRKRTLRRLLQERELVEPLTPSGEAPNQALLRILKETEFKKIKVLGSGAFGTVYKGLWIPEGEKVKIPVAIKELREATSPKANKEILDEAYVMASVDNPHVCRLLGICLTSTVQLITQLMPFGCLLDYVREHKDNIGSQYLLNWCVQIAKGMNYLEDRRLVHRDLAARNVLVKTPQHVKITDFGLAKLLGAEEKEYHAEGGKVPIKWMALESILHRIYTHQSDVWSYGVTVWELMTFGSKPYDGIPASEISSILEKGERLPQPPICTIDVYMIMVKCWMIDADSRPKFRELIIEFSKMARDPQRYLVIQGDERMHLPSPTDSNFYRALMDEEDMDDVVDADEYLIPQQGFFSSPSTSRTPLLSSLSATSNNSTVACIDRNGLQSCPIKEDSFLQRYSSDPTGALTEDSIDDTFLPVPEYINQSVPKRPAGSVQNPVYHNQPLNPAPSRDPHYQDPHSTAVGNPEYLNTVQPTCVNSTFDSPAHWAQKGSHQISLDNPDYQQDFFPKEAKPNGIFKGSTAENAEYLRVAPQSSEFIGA
# Tyrosine-protein kinase Lck (Homo sapiens), sequence (P06239 2-509 limits assumed): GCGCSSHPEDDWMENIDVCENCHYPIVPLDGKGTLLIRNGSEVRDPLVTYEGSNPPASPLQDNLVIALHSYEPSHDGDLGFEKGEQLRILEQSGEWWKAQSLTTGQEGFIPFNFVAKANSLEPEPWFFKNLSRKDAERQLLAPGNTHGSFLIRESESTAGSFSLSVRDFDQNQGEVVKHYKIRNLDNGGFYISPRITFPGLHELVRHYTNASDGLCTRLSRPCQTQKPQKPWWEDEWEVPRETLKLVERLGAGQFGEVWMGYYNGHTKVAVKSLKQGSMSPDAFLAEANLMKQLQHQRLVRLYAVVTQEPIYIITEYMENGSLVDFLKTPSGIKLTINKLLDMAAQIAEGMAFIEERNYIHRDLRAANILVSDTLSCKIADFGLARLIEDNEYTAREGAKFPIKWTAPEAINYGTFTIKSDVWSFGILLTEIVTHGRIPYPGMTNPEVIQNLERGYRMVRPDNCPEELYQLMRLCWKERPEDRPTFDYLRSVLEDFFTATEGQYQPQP
# RAF proto-oncogene serine/threonine-protein kinase (Homo sapiens), sequence (P04049 whole entry): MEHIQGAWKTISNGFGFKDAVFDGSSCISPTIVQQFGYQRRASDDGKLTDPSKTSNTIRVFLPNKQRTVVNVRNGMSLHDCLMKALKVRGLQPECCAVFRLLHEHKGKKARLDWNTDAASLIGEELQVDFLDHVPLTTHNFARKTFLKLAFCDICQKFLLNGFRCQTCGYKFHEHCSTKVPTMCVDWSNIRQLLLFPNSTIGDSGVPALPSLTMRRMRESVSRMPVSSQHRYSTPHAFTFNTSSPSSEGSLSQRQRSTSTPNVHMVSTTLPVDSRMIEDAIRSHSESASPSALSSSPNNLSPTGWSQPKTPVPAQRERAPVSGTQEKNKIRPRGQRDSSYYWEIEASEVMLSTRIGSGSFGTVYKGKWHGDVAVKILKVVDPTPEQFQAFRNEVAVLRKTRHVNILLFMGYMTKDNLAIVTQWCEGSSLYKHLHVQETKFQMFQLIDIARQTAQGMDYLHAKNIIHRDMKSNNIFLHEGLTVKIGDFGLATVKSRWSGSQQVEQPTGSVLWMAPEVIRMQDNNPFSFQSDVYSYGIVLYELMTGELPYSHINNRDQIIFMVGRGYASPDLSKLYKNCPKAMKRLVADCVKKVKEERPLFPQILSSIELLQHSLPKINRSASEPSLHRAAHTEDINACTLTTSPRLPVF
inhibition [1] [%],concentration at 2 h [2] [ng/mL],pIC50 (BT-474),pIC50 [3],pIC50 (SK-BR-3),concentration at 1 h [4] [ng/mL],inhibition [5] [%],pIC50 (HeLa),pIC50 [6],concentration at 0.5 h [7] [ng/mL],pIC50 [8],concentration at 1 h [9] [ng/mL],concentration at 4 h [10] [ng/mL],concentration at 0.5 h [11] [ng/mL],concentration at 2 h [12] [ng/mL],Compound,pIC50 (NCI-N87)
60,32.4,7.31,6.83,6.16,12.6,50,< 5.00,7.74,23.4,,,,,,Nc1ncnc(Nc2ccc3c(cnn3Cc3cccc(F)c3)c2)c1/C=N/N1CCCCC1,6.44
,,,5.89,,,,,6.93,,7.31,,,,,COc1ccc(/N=C/c2c(N)ncnc2Nc2ccc3c(cnn3Cc3cccc(F)c3)c2)cc1,
,,,,,,,,7.14,,7.51,,,,,COC[C@H]1CCCN1/N=C/c1c(N)ncnc1Nc1ccc2c(cnn2Cc2cccc(F)c2)c1,
,,7.20,6.98,6.83,,,< 4.00,8.70,,8.10,6.3,4.6,10.1,13.2,CN(C)/N=C/c1c(N)ncnc1Nc1ccc2c(cnn2Cc2cccc(F)c2)c1,6.88
,,,6.29,,,,,8.10,,7.80,,,,,CN1CCN(/N=C/c2c(N)ncnc2Nc2ccc3c(cnn3Cc3cccc(F)c3)c2)CC1,
71,1.5,7.51,7.08,6.91,21.6,47,< 4.00,8.15,26.1,7.80,,,,,Nc1ncnc(Nc2ccc3c(cnn3Cc3cccc(F)c3)c2)c1/C=N/N1CCOCC1,7.04
,,,6.59,,,,,7.70,,7.28,,,,,Nc1ncnc(Nc2ccc3c(cnn3Cc3cccc(F)c3)c2)c1/C=N/NCC(F)(F)F,
,,7.85,7.27,7.24,,,< 4.00,8.10,,8.05,,,,,Nc1ncnc(Nc2ccc3c(cnn3Cc3cccc(F)c3)c2)c1/C=N/N1CCN(CCO)CC1,7.24
,,,6.44,,,,,7.08,,7.92,,,,,CN/N=C/c1c(N)ncnc1Nc1ccc2c(cnn2Cc2cccc(F)c2)c1,
,,,6.37,,,,,7.41,,7.59,,,,,COC[C@@H]1CCCN1/N=C/c1c(N)ncnc1Nc1ccc2c(cnn2Cc2cccc(F)c2)c1,
